Test results reported in patent US12544373B2, “Treatment of cancer, inflammatory diseases and autoimmune diseases” (Usher III Initiative, Inc., priority 2020, dated 2026).
Like-named read-outs stand apart in the source and are kept apart here.

What was measured:
Format in all cases: cell-based, human
PAXF HUP-T3 = test: CellTiter-Blue 2D monolayer assay (Example 1), pancreas; settings: for Test/Control (%): 72 h
Experimental: (§1) Compound 85 was assessed in 10 human tumor cell lines (see Table 3) for anti-cancer activity in vitro using a CellTiter-Blue® based 2D monolayer assay.
(§2) CellTiter-Blue® Cell Viability Assay: Tumor cells were grown at 37° C. in a humidified atmosphere with 5% CO2 in RPMI medium, supplemented with 10% (v/v) fetal calf serum and 50 μg/ml gentamicin (140 μl/well). Cultures were incubated at 37° C. and 5% CO2 in a humidified atmosphere. After 24 hours, 10 μl of Compound 85 was added, and left on the cells for another 72 hours (incubation period). Compound 85 was tested at 5 concentrations (0.003 μM, 0.03 μM, 0.3 μM, 3 μM, and 30 μM) and serially diluted in DMSO, mixed with cell culture medium, and added to the assay plates by using a Tecan Freedom EVO 200 robotic platform. The DMSO concentration was kept constant at 0.3% yip across the assay plate. Every 96 well plate included six DMSO-treated control wells and Compound 85-treated wells in duplicate at 5 concentrations. Viability of cells was quantified using the CellTiter-Blue® cell viability assay (Promega G8081). After incubation of cells, the CellTiter-Blue® reagent was brought to ambient temperature. Next, 20 μl of CellTiter-Blue® reagent were added to each well. After incubation tier up to 4 hours, fluorescence (FU) was measured using the EnSpire® multimode plate reader (Perkin Elmer) ([…]).
(§3) Data Evaluation: Sigmoidal concentration-response curves were fitted to the data points (test-versus-control; T/C values) obtained for each tumor model using 4 parameter non-linear curve fit (Charles River DRS Datawarehouse Software). Drug effects are expressed in terms of the percentage of the fluorescence signal, obtained by comparison of the mean signal in the treated wells with the mean signal of the untreated controls (T/C-value [%]) (Table 4). IC50 and IC70 values were reported as relative and absolute IC50 and IC70 values (Table 5). The absolute IC50 and IC70 values reflect the concentration of Compound 85 that achieves T/C=50% and T/C=30%, respectively. The relative IC50 value is the concentration of Compound 85 that gives a response half way between the top and bottom plateau of the sigmoidal concentration-response curve (inflection point of the curve).

PAXF 1657 = test: as above; settings: for Test/Control (%): 72 h
Experimental: as §1, §2, §3

MAXFTN MDA-MB-453 = test: CellTiter-Blue Cell Viability Assay (Example 2), breast; settings: for T/C %: 72 h
Text: (§4) The CellTiter-Blue® Cell Viability Assay was used to assess the viability of cells from various cancer cell lines, in the presence or absence of Compound 85 (at different concentrations). This assay provides a homogeneous, fluorometric method for estimating the number of viable cells present in multi-well plates. Viable cells retain the ability to reduce resazurin to resorufin, which is highly fluorescent. […] The fluorescence produced is proportional to the number of viable cells. There is a linear relationship between cell number and fluorescence.
(§5) Cancer cells (see Table 6) were harvested from exponential phase cultures, counted and plated in 96 well flat-bottom microtiter plates, at a cell density 6,000-20,000 cells/well, depending on the cell line's growth rate. The culture medium was supplemented with 10% (v/v) foetal calf serum and 50 μg/mL gentamicin (140 μL/well). Cultures were incubated at 37° C. and 5% CO2 in a humidified atmosphere.
(§6) Compound 85 was serially diluted in DMSO, and five Compound 85 concentrations in half-log increments were used: 0.03 μM, 0.09 μM, 0.30 μM, 1.0 μM, and 3.0 μM. After 24 h, 10 μL of Compound 85 (dissolved in DMSO) or control (DMSO) medium were added, in duplicates, and left on the cells for another 72 h. Compound 85 solutions were added to the assay plates using a Tecan Freedom EVO 200 robotic platform. The DMSO concentration was kept constant at 0.3% v/v across the assay plate.
(§7) After incubation of up to 72 hours, fluorescence (FU) was measured using the EnSpire® multimode plate reader (Perkin Elmer) (excitation λ=570 nm, emission λ=600 nm).
(§8) Cancer cell lines used: Compound 85's anti-cancer effect was tested in 20 human cancer-cell lines representing nine cancer types (Table 6).
(§9) The percentage of viable cells in the presence of Compound 85 (Test condition, T), at different concentrations, are presented in Table 7 and expressed as a percentage of the number of viable cells in the presence of DMSO without Compound 85 (Control condition, C).
(§10) The relative IC50 is determined as the Compound 85 concentration giving a response halfway between the maximum cell viability signal (i.e., a 100% cell viability, no Compound 85 response) and the minimal viability signal (i.e. maximum cell viability inhibition achieved by Compound 85), in a sigmoidal concentration-effect curve.
(§11) The absolute IC50 is determined as the concentration that is associated with a T/C ratio of 50%.

SXFS 1301 = test: CellTiter-Blue Cell Viability Assay (Example 2), soft tissue sarcoma; settings: for T/C %: 72 h
Text: as §4, §5, §6, §7, §8, §9, §10, §11

CNXF 498 = test: CellTiter-Blue Cell Viability Assay (Example 2), glioblastoma; settings: for T/C %: 72 h
Text: as §4, §5, §6, §7, §8, §9, §10, §11

CNXF U-87 MG = test: as above; settings: for T/C %: 72 h
Text: as §4, §5, §6, §7, §8, §9, §10, §11

Question: For `CC(C)(O)Cn1nc(-c2ccccc2)c2c(Cl)c(-c3ccccc3)nnc21` [Compound 85], which “Rel. IC70” value (PAXF HUP-T3) is on record?
Answer: Its value is 1.505 µM.

Question: And the “Test/Control (%)” value (PAXF HUP-T3; 0.003 μM)?
Answer: The value was 100%.

Question: What about the “Test/Control (%)” value (PAXF HUP-T3; 0.03 μM) of the same molecule?
Answer: The value was 101%.

Question: And the “Test/Control (%)” value (PAXF HUP-T3; 0.3 μM)?
Answer: Its value is 79%.

Question: What about the “Test/Control (%)” value (PAXF HUP-T3; 3 μM) of the same molecule?
Answer: Its value is 16%.

Question: What about the “Test/Control (%)” value (PAXF HUP-T3; 30 μM) of the same molecule?
Answer: The value was 6%.

Question: What about the “Abs. IC70” value (PAXF HUP-T3; T/C=30%) of the same molecule?
Answer: Its value is 1.518 µM.

Question: What about the IC50 (PAXF HUP-T3; T/C=50%, read-out: Abs. IC50) of the same molecule?
Answer: Its IC50 is 0.794 µM.

Question: And the “Bot. (%)” value (PAXF HUP-T3; bottom plateau of curve)?
Answer: Its value is 0%.

Question: What about the IC50 (PAXF HUP-T3; read-out: Rel. IC50) of the same molecule?
Answer: Its IC50 is 0.785 µM.

Question: What about the “Top (%)” value (PAXF HUP-T3; top plateau of curve) of the same molecule?
Answer: The value was 101%.

Question: And the “Rel. IC70” value (PAXF 1657)?
Answer: Its value is 2.043 µM.

Question: What about the “Test/Control (%)” value (PAXF 1657; 0.003 μM) of the same molecule?
Answer: Its value is 100%.

Question: And the “Test/Control (%)” value (PAXF 1657; 0.03 μM)?
Answer: Its value is 100%.

Question: What about the “Test/Control (%)” value (PAXF 1657; 0.3 μM) of the same molecule?
Answer: The value was 100%.

Question: And the “Test/Control (%)” value (PAXF 1657; 3 μM)?
Answer: The value was 3%.

Question: What about the “Test/Control (%)” value (PAXF 1657; 30 μM) of the same molecule?
Answer: The value was 1%.

Question: And the “Abs. IC70” value (PAXF 1657; T/C=30%)?
Answer: Its value is 2.055 µM.

Question: What about the IC50 (PAXF 1657; T/C=50%, read-out: Abs. IC50) of the same molecule?
Answer: The IC50 was 1.85 µM.

Question: What about the “Bot. (%)” value (PAXF 1657; bottom plateau of curve) of the same molecule?
Answer: Its value is 1%.

Question: What about the IC50 (PAXF 1657; read-out: Rel. IC50) of the same molecule?
Answer: Its IC50 is 1.84 µM.

Question: And the “Top (%)” value (PAXF 1657; top plateau of curve)?
Answer: Its value is 100%.

Question: And the “Absolute IC70” value (MAXFTN MDA-MB-453)?
Answer: Its value is 0.765 µM.

Question: What about the “Relative IC70” value (MAXFTN MDA-MB-453) of the same molecule?
Answer: Its value is 0.763 µM.

Question: What about the T/C % (MAXFTN MDA-MB-453; 0.03 μM) of the same molecule?
Answer: The T/C % was 101%.

Question: What about the T/C % (MAXFTN MDA-MB-453; 0.095 μM) of the same molecule?
Answer: Its T/C % is 97%.

Question: What about the T/C % (MAXFTN MDA-MB-453; 0.3 μM) of the same molecule?
Answer: Its T/C % is 101%.

Question: What about the T/C % (MAXFTN MDA-MB-453; 0.95 μM) of the same molecule?
Answer: Its T/C % is 3%.

Question: And the T/C % (MAXFTN MDA-MB-453; 3.0 μM)?
Answer: Its T/C % is 1%.

Question: And the IC50 (MAXFTN MDA-MB-453; read-out: Absolute IC50)?
Answer: Its IC50 is 0.719 µM.

Question: And the IC50 (MAXFTN MDA-MB-453; read-out: Relative IC50)?
Answer: Its IC50 is 0.717 µM.

Question: And the “Absolute IC70” value (SXFS 1301)?
Answer: The value was 0.57 µM.

Question: What about the “Relative IC70” value (SXFS 1301) of the same molecule?
Answer: The value was 0.558 µM.

Question: And the T/C % (SXFS 1301; 0.03 μM)?
Answer: Its T/C % is 105%.

Question: And the T/C % (SXFS 1301; 0.095 μM)?
Answer: The T/C % was 106%.

Question: What about the T/C % (SXFS 1301; 0.3 μM) of the same molecule?
Answer: The T/C % was 102%.

Question: And the T/C % (SXFS 1301; 0.95 μM)?
Answer: The T/C % was 3%.

Question: What about the T/C % (SXFS 1301; 3.0 μM) of the same molecule?
Answer: Its T/C % is 2%.

Question: What about the IC50 (SXFS 1301; read-out: Absolute IC50) of the same molecule?
Answer: Its IC50 is 0.501 µM.

Question: What about the IC50 (SXFS 1301; read-out: Relative IC50) of the same molecule?
Answer: Its IC50 is 0.49 µM.

Question: What about the “Absolute IC70” value (CNXF 498) of the same molecule?
Answer: The value was 1.901 µM.

Question: What about the “Relative IC70” value (CNXF 498) of the same molecule?
Answer: The value was 1.868 µM.

Question: What about the T/C % (CNXF 498; 0.03 μM) of the same molecule?
Answer: Its T/C % is 106%.

Question: And the T/C % (CNXF 498; 0.095 μM)?
Answer: Its T/C % is 107%.

Question: What about the T/C % (CNXF 498; 0.3 μM) of the same molecule?
Answer: Its T/C % is 113%.

Question: What about the T/C % (CNXF 498; 0.95 μM) of the same molecule?
Answer: The T/C % was 2%.

Question: And the T/C % (CNXF 498; 3.0 μM)?
Answer: The T/C % was 1%.

Question: And the IC50 (CNXF 498; read-out: Absolute IC50)?
Answer: The IC50 was 1.74 µM.

Question: And the IC50 (CNXF 498; read-out: Relative IC50)?
Answer: The IC50 was 1.71 µM.

Question: And the “Absolute IC70” value (CNXF U-87 MG)?
Answer: Its value is 0.9938 µM.

Question: And the “Relative IC70” value (CNXF U-87 MG)?
Answer: The value was 0.9869 µM.

Question: What about the T/C % (CNXF U-87 MG; 0.03 μM) of the same molecule?
Answer: Its T/C % is 99%.

Question: And the T/C % (CNXF U-87 MG; 0.095 μM)?
Answer: The T/C % was 102%.

Question: And the T/C % (CNXF U-87 MG; 0.3 μM)?
Answer: The T/C % was 102%.

Question: And the T/C % (CNXF U-87 MG; 0.95 μM)?
Answer: The T/C % was 1%.

Question: And the T/C % (CNXF U-87 MG; 3.0 μM)?
Answer: Its T/C % is 4%.

Question: And the IC50 (CNXF U-87 MG; read-out: Absolute IC50)?
Answer: Its IC50 is 0.94 µM.

Question: And the IC50 (CNXF U-87 MG; read-out: Relative IC50)?
Answer: Its IC50 is 0.935 µM.
